Experimental findings from ChEMBL document CHEMBL1154387, “Discovery of novel non-peptide inhibitors of BACE-1 using virtual high-throughput screening” (Bioorg Med Chem Lett, 2009) are described below.

The target in experiment [1] is T1, Beta-secretase 1 (Homo sapiens, UniProt P56817). Kind of experiment: Inhibition of human recombinant BACE1. Details: concentration or dose not given beside the values. The following applies: concentration not given here.
For experiment [2], the target named is T1, Beta-secretase 1. Put plainly: Inhibition of human recombinant BACE1 at 100 uM.

T1 sequence (P56817 whole entry): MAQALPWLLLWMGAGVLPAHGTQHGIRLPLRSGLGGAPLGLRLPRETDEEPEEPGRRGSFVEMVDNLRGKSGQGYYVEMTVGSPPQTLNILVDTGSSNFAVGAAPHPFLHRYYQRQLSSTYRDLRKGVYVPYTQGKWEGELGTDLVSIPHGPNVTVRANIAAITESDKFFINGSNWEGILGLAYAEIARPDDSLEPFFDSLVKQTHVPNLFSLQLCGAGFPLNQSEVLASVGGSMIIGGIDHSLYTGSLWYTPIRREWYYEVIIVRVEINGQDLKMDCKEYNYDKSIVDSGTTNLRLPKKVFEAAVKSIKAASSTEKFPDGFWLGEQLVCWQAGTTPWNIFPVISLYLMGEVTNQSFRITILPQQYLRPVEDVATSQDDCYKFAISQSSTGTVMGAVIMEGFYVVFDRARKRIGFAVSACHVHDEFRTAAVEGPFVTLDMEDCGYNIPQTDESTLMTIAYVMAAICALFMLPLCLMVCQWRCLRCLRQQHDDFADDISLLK

With `O=C1Nc2ccccc2/C1=N/NC(=O)c1cc([N+](=O)[O-])ccc1O`, the inhibition at Beta-secretase 1 [1] came to 35.2%.
The same measure, in the same setting: under `O=C(CN1C(=O)/C(=N\NC(=O)c2cc([N+](=O)[O-])ccc2O)c2ccccc21)Nc1ccc(C(F)(F)F)cc1` stands 74.6%.
Turning to `COc1ccc([N+](=O)[O-])cc1C(=O)N/N=C1\C(=O)N(CC(=O)Nc2ccc(C)cc2)c2ccccc21`, the inhibition on Beta-secretase 1 [1] was determined as 20.2%.
Still for that read-out and setting: under `CN1C(=O)/C(=N\NC(=O)c2cc([N+](=O)[O-])ccc2O)c2ccccc21` stands 14.3%; under `Cc1ccc(NC(=O)CN2C(=O)/C(=N\NC(=O)c3ccccc3O)c3ccccc32)cc1`, 71.1%; under `Cc1ccc(NC(=O)CN2C(=O)/C(=N\NC(=O)c3cccc([N+](=O)[O-])c3)c3ccccc32)cc1`, 28.8%.
For the compound `O=C(CN1C(=O)/C(=N\NC(=O)c2cc([N+](=O)[O-])ccc2O)c2ccccc21)NC1CCCCC1`, the inhibition at Beta-secretase 1 [1] amounted to 92%. Also, at Beta-secretase 1 [2], the 50% inhibitory concentration (IC50) is 4.8 µM.
For `Cc1ccc(NC(=O)CN2C(=O)/C(=N\NC(=O)c3cc([N+](=O)[O-])ccc3O)c3ccccc32)cc1`, in that order: 84.5% and 2.4 µM.

In general, inhibition refers to the drop in the measured response relative to a control, in per cent. Broadly, the IC50 is the concentration needed to halve the response being measured.
